Laboratory results from patent US12624067B2, “Cyclic peptide, cell scaffold material, cell separating material, and medium” (FUJIFILM Corporation, priority 2019, dated 2026).
Numbered stars: 1 amine (or outer) side, 2 acyl side, 3 side chain; on linkers, the order of the positions; unused ones are H or OH. Bridge positions count the residues as written; N and C are the ends. Square brackets hold non-standard residues; d marks the D form. Peptide text beside a SMILES is read from it. hCys = N[C@@H](CCS)C(=O)O; Orn = NCCC[C@H](N)C(=O)O; Dab = NCC[C@H](N)C(=O)O; Dap = NC[C@H](N)C(=O)O; X1 = O=C(C[*:1])[*:2]; X2 = O=C(C[*:2])[*:1]

Legend:
[1] = Evaluation of molecule stability (alkali treatment, LC/MS residual rate); type: physicochemical; settings: 500 μM peptide plus equivalent of 1 M sodium hydroxide, 15° C., 20 minutes, LC/MS peak area
Method: The molecule stability of the cyclic peptide was evaluated by analyzing the alkali-treated cyclic peptide aqueous solution by liquid chromatography mass spectroscopy (LC/MS).
The alkali treatment was carried out by the following method. A 500 μM cyclic peptide aqueous solution was prepared, an equivalent of 1 M sodium hydroxide aqueous solution was added to this aqueous solution, and the resultant mixture was incubated at 15° C. for 20 minutes to obtain an alkali-treated cyclic peptide aqueous solution. The cyclic peptide residual rate was calculated by setting the total area of all peaks of the cyclic peptide before alkali treatment in LC/MS to 100% and determining the proportion of the total area of all peaks in LC/MS of the alkali-treated cyclic peptide aqueous solution, and the molecule stability was evaluated according to the following evaluation standards. It is preferable that the evaluation result satisfies the evaluation standard A, B, or C.
The conditions of the LC/MS used for the evaluation of molecule stability were set as follows. • LC apparatus: Prominence series (pump, column oven, autosampler, detector) (manufactured by Shimadzu Corporation) • MS detector: LC/MS2010EV (manufactured by Shimadzu Corporation) • Column: Cadenza CD-C18, inner diameter 2.0 mm×length 250 mm, particle size: 3 μm (manufactured by Imtakt Corporation) • Eluent A: a solution (pH 3) containing 10 mM ammonium formate as a solute, where the solvent is 100% water. • Eluent B: a solution (pH 3) containing 10 mM ammonium formate as a solute, where the solvent is acetonitrile/water=90/10. • Flow rate: 0.2 mL/min • Injection volume: 4 μL • Gradient: 0% to 30%: Eluent B (0 to 30 minutes), 100%: Eluent B (30 to 40 minutes), 0%: Eluent B (40 to 60 minutes)(B indicates the eluent B) • Column temperature: 45° C. • Ionization method: electrospray ionization (ESI) positive, ESI negative

human integrin αvβ5 = human integrin αvβ5 (Homo sapiens, UniProt P06756+P18084); assay: Evaluation of integrin binding property (surface plasmon resonance, Biacore 3000, immobilized cyclic peptide); settings: peptide immobilized on CM5 sensor chip; human integrin αvβ5 30-1,000 nM, 25° C., HEPES buffer with 5 mM magnesium chloride; read-out: Integrin binding property (dissociation constant)
Sequence of human integrin αvβ5 (P06756 31-889 limits assumed): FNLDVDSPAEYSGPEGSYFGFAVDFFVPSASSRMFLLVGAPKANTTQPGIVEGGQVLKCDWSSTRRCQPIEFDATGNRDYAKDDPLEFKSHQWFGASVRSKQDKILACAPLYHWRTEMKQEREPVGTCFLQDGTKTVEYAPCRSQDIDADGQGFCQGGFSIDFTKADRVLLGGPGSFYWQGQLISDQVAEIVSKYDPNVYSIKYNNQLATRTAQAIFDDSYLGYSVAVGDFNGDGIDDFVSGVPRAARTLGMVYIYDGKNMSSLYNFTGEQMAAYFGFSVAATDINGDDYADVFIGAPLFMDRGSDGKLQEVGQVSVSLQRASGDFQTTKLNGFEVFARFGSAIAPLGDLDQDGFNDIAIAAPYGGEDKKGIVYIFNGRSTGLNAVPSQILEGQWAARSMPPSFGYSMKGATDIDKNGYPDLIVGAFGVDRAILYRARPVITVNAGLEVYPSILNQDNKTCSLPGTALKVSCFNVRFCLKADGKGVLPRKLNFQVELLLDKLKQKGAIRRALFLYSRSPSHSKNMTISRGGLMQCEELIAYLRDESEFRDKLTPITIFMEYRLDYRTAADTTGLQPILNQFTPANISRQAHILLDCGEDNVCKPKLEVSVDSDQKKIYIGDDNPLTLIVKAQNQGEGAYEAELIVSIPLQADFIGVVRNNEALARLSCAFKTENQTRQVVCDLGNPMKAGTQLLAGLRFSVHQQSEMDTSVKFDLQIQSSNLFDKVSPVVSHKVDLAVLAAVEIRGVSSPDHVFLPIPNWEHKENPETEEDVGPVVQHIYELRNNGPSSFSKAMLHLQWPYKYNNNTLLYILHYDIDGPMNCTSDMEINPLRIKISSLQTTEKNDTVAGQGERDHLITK
Sequence of human integrin αvβ5 (P06756 891-1048 partner limits assumed): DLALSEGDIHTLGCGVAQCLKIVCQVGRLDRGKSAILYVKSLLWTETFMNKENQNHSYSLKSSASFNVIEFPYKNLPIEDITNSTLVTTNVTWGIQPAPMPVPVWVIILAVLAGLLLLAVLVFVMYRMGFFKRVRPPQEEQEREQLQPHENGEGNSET
Sequence of human integrin αvβ5 (P18084 24-799): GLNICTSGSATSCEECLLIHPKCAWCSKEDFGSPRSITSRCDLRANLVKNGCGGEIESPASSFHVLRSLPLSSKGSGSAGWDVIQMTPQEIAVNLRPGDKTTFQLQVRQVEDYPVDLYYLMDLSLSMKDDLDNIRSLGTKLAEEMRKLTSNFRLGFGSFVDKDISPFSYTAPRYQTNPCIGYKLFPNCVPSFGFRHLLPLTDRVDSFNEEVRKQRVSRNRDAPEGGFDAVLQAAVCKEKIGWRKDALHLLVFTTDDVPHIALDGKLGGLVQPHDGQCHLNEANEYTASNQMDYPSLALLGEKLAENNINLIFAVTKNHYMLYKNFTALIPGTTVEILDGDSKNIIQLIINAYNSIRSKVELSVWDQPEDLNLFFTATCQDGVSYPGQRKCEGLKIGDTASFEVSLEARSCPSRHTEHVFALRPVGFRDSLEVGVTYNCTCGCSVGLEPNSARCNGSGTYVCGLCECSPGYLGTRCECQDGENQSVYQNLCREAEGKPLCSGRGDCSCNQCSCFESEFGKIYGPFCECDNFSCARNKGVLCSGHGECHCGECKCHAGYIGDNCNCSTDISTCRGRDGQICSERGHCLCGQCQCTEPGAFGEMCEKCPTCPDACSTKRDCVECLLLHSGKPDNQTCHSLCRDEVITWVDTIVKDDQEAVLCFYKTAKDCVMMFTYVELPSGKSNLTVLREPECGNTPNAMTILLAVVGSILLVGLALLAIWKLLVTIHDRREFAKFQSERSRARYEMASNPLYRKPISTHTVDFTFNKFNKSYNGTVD
Method: A commercially available CM5 sensor chip (a carboxymethyl dextran introduction type, manufactured by GE Healthcare) was set in a surface plasmon resonance apparatus (product name: Biacore 3000, manufactured by GE Healthcare), the sensor was stabilized at a flow rate of 10 μL/min of a 4-(2-hydroxyethyl)-1-piperazineethanesulfonic acid (HEPES) buffer solution (20 mM HEPES-HCl, 150 mM NaCl, pH 7.4) for surface plasmon resonance (SPR), and 70 μL of a mixed aqueous solution of 0.2 M 1-(3-dimethylaminopropyl)-3-ethylcarbodiimide (EDC) and 0.04 M N-hydroxysuccinimide (NHS) was added thereto. Then, 300 μL of the sample solution of each of the above cyclic peptides diluted to 0.2 g/L with the HEPES buffer solution was supplied to the sensor chip, blocking treatment was subsequently carried out with an ethanolamine solution, and washing was carried out with a sodium hydroxide aqueous solution, whereby immobilization was carried out. However, only for the cyclic peptide 22, in which the number of lysine residues having an amino group as the immobilizing functional group was 1, the sample solution to be supplied to the sensor chip was set to 5,000 μL instead of 300 μL. Similarly; 70 μL of the mixed aqueous solution of 0.2 M EDC and 0.04 M NHS was added to another flow channel of the same sensor chip without immobilizing the sample, and then blocking treatment and washing treatment were carried out. Hereinafter, the obtained immobilization-treated sensor chip is referred to as an “immobilization-treated sensor chip A”.
After adding human integrin αvβ5 for 10 minutes at 25° C., which was diluted to 30 nM using a HEPES buffer solution to which magnesium chloride was added to 5 mM, in each flow channel of the immobilization-treated sensor chip A prepared in (1) above, the same HEPES buffer solution (containing 5 mM magnesium chloride) was allowed to flow as a running buffer for 30 minutes, and measurement was carried out with Biacore 3000.
Then, a regeneration treatment of removing human integrin αvβ5 was carried out by allowing a 0.5 M EDTA aqueous solution to flow through each flow channel for 10 minutes. Further, the above-described measurement process consisting of adding integrin for 10 minutes, allowing a running buffer to flow for 30 minutes, carrying out measurement with Biacore 3000, and carrying out regeneration treatment with 0.5 M EDTA aqueous solution was carried out in the same manner for 100 nM human integrin αvβ5, 300 nM human integrin αvβ5, and 1,000 nM human integrin αvβ5. Dissociation constant between the cyclic peptide and human integrin αvβ5 was calculated from the difference between the value measured by Biacore 3000 in the flow channel immobilized with the cyclic peptide and the value measured by Biacore 3000 in the flow channel unimmobilized with the cyclic peptide, in a case where each concentration of human integrin αvβ5 was allowed to flow; and the integrin binding property was evaluated according to the following evaluation standards. It is preferable that the evaluation result satisfies the evaluation standard A, B, or C.

Row | Structure (SMILES) | Molecule stability (cyclic peptide residual rate) [1] | Kd (human integrin αvβ5)
1 | CC[C@H](C)[C@@H]1NC(=O)CSCC[C@@H](C(=O)N[C@@H](CCCCN)C(=O)N[C@@H](CCCCN)C(=O)N[C@@H](CCCCN)C(=O)O)NC(=O)[C@H](Cc2ccccc2)NC(=O)[C@@H]2CCSCC(=O)NC[C@H](NC1=O)C(=O)N[C@@H](CCCNC(=N)N)C(=O)NCC(=O)N[C@@H](CC(=O)O)C(=O)N2 [Cyclic peptide 1] ({CH2CO}-I[Dap]RGD[hCys]F[hCys]KKK-OH; linker 2-6 via X2; thioether N-8) | A (The residual rate of the cyclic peptide is 70% or more.) | 50 to 100 nM
2 | CC[C@H](C)[C@@H]1NC(=O)CSCC[C@@H](C(=O)N[C@@H](CCCCN)C(=O)N[C@@H](CCCCN)C(=O)N[C@@H](CCCCN)C(=O)O)NC(=O)[C@H](Cc2ccccc2)NC(=O)[C@@H]2CCSCC(=O)NCC[C@H](NC1=O)C(=O)N[C@@H](CCCNC(=N)N)C(=O)NCC(=O)N[C@@H](CC(=O)O)C(=O)N2 [Cyclic peptide 2] ({CH2CO}-I[Dab]RGD[hCys]F[hCys]KKK-OH; linker 2-6 via X2; thioether N-8) | A (The residual rate of the cyclic peptide is 70% or more.) | 100 to 200 nM
3 | CC[C@H](C)[C@@H]1NC(=O)CSCC[C@@H](C(=O)N[C@@H](CCCCN)C(=O)N[C@@H](CCCCN)C(=O)N[C@@H](CCCCN)C(=O)O)NC(=O)[C@H](Cc2ccccc2)NC(=O)[C@@H]2CCSCC(=O)NCCC[C@H](NC1=O)C(=O)N[C@@H](CCCNC(=N)N)C(=O)NCC(=O)N[C@@H](CC(=O)O)C(=O)N2 [Cyclic peptide 3] ({CH2CO}-I[Orn]RGD[hCys]F[hCys]KKK-OH; linker 2-6 via X2; thioether N-8) | A (The residual rate of the cyclic peptide is 70% or more.) | < 50 nM
4 | CC[C@H](C)[C@@H]1NC(=O)CSCC[C@@H](C(=O)N[C@@H](CCCCN)C(=O)N[C@@H](CCCCN)C(=O)N[C@@H](CCCCN)C(=O)O)NC(=O)[C@H](Cc2ccccc2)NC(=O)[C@@H]2CCSCC(=O)NCCCC[C@H](NC1=O)C(=O)N[C@@H](CCCNC(=N)N)C(=O)NCC(=O)N[C@@H](CC(=O)O)C(=O)N2 [Cyclic peptide 4] ({CH2CO}-IKRGD[hCys]F[hCys]KKK-OH; linker 2-6 via X2; thioether N-8) | A (The residual rate of the cyclic peptide is 70% or more.) | 50 to 100 nM
5 | CC[C@H](C)[C@@H]1NC(=O)CSCC[C@@H](C(=O)N[C@@H](CCCCN)C(=O)N[C@@H](CCCCN)C(=O)N[C@@H](CCCCN)C(=O)O)NC(=O)[C@H](Cc2ccccc2)NC(=O)[C@@H]2CNC(=O)CSCC[C@H](NC1=O)C(=O)N[C@@H](CCCNC(=N)N)C(=O)NCC(=O)N[C@@H](CC(=O)O)C(=O)N2 [Cyclic peptide 5] ({CH2CO}-I[hCys]RGD[Dap]F[hCys]KKK-OH; linker 2-6 via X1; thioether N-8) | A (The residual rate of the cyclic peptide is 70% or more.) | 50 to 100 nM
6 | CC[C@H](C)[C@@H]1NC(=O)CSC[C@@H](C(=O)N[C@@H](CCCCN)C(=O)N[C@@H](CCCCN)C(=O)N[C@@H](CCCCN)C(=O)O)NC(=O)[C@H](Cc2ccccc2)NC(=O)[C@@H]2CNC(=O)CSC[C@H](NC1=O)C(=O)N[C@@H](CCCNC(=N)N)C(=O)NCC(=O)N[C@@H](CC(=O)O)C(=O)N2 [Cyclic peptide 6] ({CH2CO}-ICRGD[Dap]FCKKK-OH; linker 2-6 via X1; thioether N-8) | B (The residual rate of the cyclic peptide is 50% or more and less than 70%.) | 100 to 200 nM
7 | CC[C@H](C)[C@@H]1NC(=O)CSCC[C@@H](C(=O)N[C@@H](CCCCN)C(=O)N[C@@H](CCCCN)C(=O)N[C@@H](CCCCN)C(=O)O)NC(=O)[C@H](Cc2ccccc2)NC(=O)[C@@H]2CCNC(=O)CSCC[C@H](NC1=O)C(=O)N[C@@H](CCCNC(=N)N)C(=O)NCC(=O)N[C@@H](CC(=O)O)C(=O)N2 [Cyclic peptide 7] ({CH2CO}-I[hCys]RGD[Dab]F[hCys]KKK-OH; linker 2-6 via X1; thioether N-8) | A (The residual rate of the cyclic peptide is 70% or more.) | 50 to 100 nM
8 | CC[C@H](C)[C@@H]1NC(=O)CSC[C@@H](C(=O)N[C@@H](CCCCN)C(=O)N[C@@H](CCCCN)C(=O)N[C@@H](CCCCN)C(=O)O)NC(=O)[C@H](Cc2ccccc2)NC(=O)[C@@H]2CCNC(=O)CSC[C@H](NC1=O)C(=O)N[C@@H](CCCNC(=N)N)C(=O)NCC(=O)N[C@@H](CC(=O)O)C(=O)N2 [Cyclic peptide 8] ({CH2CO}-ICRGD[Dab]FCKKK-OH; linker 2-6 via X1; thioether N-8) | B (The residual rate of the cyclic peptide is 50% or more and less than 70%.) | < 50 nM
9 | CC[C@H](C)[C@@H]1NC(=O)CSCC[C@@H](C(=O)N[C@@H](CCCCN)C(=O)N[C@@H](CCCCN)C(=O)N[C@@H](CCCCN)C(=O)O)NC(=O)[C@H](Cc2ccccc2)NC(=O)[C@@H]2CCCNC(=O)CSCC[C@H](NC1=O)C(=O)N[C@@H](CCCNC(=N)N)C(=O)NCC(=O)N[C@@H](CC(=O)O)C(=O)N2 [Cyclic peptide 9] ({CH2CO}-I[hCys]RGD[Orn]F[hCys]KKK-OH; linker 2-6 via X1; thioether N-8) | A (The residual rate of the cyclic peptide is 70% or more.) | 50 to 100 nM
10 | CC[C@H](C)[C@@H]1NC(=O)CSC[C@@H](C(=O)N[C@@H](CCCCN)C(=O)N[C@@H](CCCCN)C(=O)N[C@@H](CCCCN)C(=O)O)NC(=O)[C@H](Cc2ccccc2)NC(=O)[C@@H]2CCCNC(=O)CSC[C@H](NC1=O)C(=O)N[C@@H](CCCNC(=N)N)C(=O)NCC(=O)N[C@@H](CC(=O)O)C(=O)N2 [Cyclic peptide 10] ({CH2CO}-ICRGD[Orn]FCKKK-OH; linker 2-6 via X1; thioether N-8) | B (The residual rate of the cyclic peptide is 50% or more and less than 70%.) | 50 to 100 nM
11 | N=C(N)NCCC[C@@H]1NC(=O)[C@@H]2CNC(=O)CSCC[C@H](NC(=O)[C@H](CC(=O)O)NC(=O)CNC1=O)C(=O)N[C@@H](Cc1ccccc1)C(=O)N[C@H](C(=O)N[C@@H](CCCCN)C(=O)N[C@@H](CCCCN)C(=O)N[C@@H](CCCCN)C(=O)O)CCSCC(=O)N[C@@H](CCCCN)C(=O)N2 [Cyclic peptide 21] ({CH2CO}-K[Dap]RGD[hCys]F[hCys]KKK-OH; linker 2-6 via X2; thioether N-8; N-terminus and C-terminus assumed) | A (The residual rate of the cyclic peptide is 70% or more.) | –
12 | N=C(N)NCCC[C@@H]1NC(=O)[C@@H]2CSSC[C@H](NC(=O)[C@H](CC(=O)O)NC(=O)CNC1=O)C(=O)N[C@@H](Cc1ccccc1)C(=O)N[C@H](C(=O)N[C@@H](CCCCN)C(=O)N[C@@H](CCCCN)C(=O)N[C@@H](CCCCN)C(=O)O)CSCC(=O)N[C@@H](CCCCN)C(=O)N2 [Cyclic peptide 48, reference compound] ({CH2CO}-KCRGDCFCKKK-OH; disulfide 2-6; thioether N-8; N-terminus and C-terminus assumed) | D (The residual rate of the cyclic peptide is less than 30%.) | –
